# In US4408054A, “Oximes of 4-benzoyl-piperidines” (Hoechst-Roussel Pharmaceuticals Inc., priority 1982, dated 1983):
# Tested on: mice
# Assay: phenyl-p-quinone writhing assay in mice (analgesia)
# Format: in vivo
# Details: Mus musculus, sc, read-out: ED50 (subcutaneous dose effecting an approximately 50% inhibition of writhing)
# Text: The 3-(4-piperidyl)-1,2-benzisoxazoles of the present invention are useful as analgetics due to their ability to alleviate pain in mammals. […] Exptl. Biol Med., 95 729 (1957)]. Thus, for instance, the subcutaneous dose effecting an approximately 50% inhibition of writhing (ED50) in mice produced in this assay is as follows: […]
row,SMILES,ED50
1,"CN1CCC(c2noc3ccccc23)CC1.Cl [3-(1-Methyl-4-piperidyl)-1,2-benzisoxazole hydrochloride]",0.415 mg/kg
2,"Cc1ccc2onc(C3CCN(C)CC3)c2c1.O=C(O)/C=C/C(=O)O [3-(1-Methyl-4-piperidyl)-5-methyl-1,2-benzisoxazole fumarate]",0.566 mg/kg
3,"Cl.c1ccc2c(C3CCNCC3)noc2c1 [3-(4-Piperidyl)-1,2-benzisoxazole hydrochloride]",0.517 mg/kg
4,"Cl.Clc1ccc2c(C3CCNCC3)noc2c1 [3-(4-Piperidyl)-6-chloro-1,2-benzisoxazole hydrochloride]",5.6 mg/kg
5,"Cl.Fc1ccc2c(C3CCNCC3)noc2c1 [3-(4-Piperidyl)-6-fluoro-1,2-benzisoxazole hydrochloride]",1.79 mg/kg
6,"CC(C)=CCN1CCC2(C)c3cc(O)ccc3CC1C2C (centres unmarked) [pentazocine, reference compound]",1.3 mg/kg
7,"CCC(=O)O[C@](Cc1ccccc1)(c1ccccc1)[C@H](C)CN(C)C [propoxyphene, reference compound]",3.9 mg/kg

# Same assay, conditions: Mus musculus, sc; mice, subcutaneous, phenyl-p-quinone writhing; read-out: ED50 (subcutaneous dose effecting an approximately 50% inhibition of writhing)
row,SMILES,ED50
1,"C=CCN1CCC(c2noc3ccccc23)CC1.Cl [3-(1-Allyl-4-piperidyl)-1,2-benzisoxazole hydrochloride]",1.06 mg/kg
2,"C=CCN1CCC(c2noc3cc(F)ccc23)CC1.Cl [3-(1-Allyl-4-piperidyl)-6-fluoro-1,2-benzisoxazole hydrochloride]",0.455 mg/kg
3,"CN(C)CCCN1CCC(c2noc3ccccc23)CC1.O=C(O)/C=C/C(=O)O.O=C(O)/C=C/C(=O)O [3-[1-(3-Dimethylaminopropyl)-4-piperidyl]-1,2-benzisoxazole difumarate]",7.4 mg/kg
4,"Cl.c1ccc(CCN2CCC(c3noc4ccccc34)CC2)cc1 [3-[1-(β-Phenylethyl)-4-piperidyl]-1,2-benzisoxazole hydrochloride]",0.386 mg/kg
